Source: US20260356834A1, “ANTICONVULSIVE COMPOUNDS AND USES THEREOF” (Jazz Pharmaceuticals Research UK Limite, priority 2023, published 2026)
Values joined by “and” are separate entries in the source; they are usually repeats but may differ in a detail not shown here. Equal entries are not always repeated. Marks after values point to notes of the source that are not given here.

Tests used:
RjOrl: Swiss mice [1] = test: mouse 6 Hz (44 mA) model of partial seizures; type: in vivo; settings: 200 mg/kg i.p., 30 min
Source text: The 6 Hz (44 mA) model of partial seizures, which detects anticonvulsant activity, follows that described by Brown et al. 1953.
[…] A decrease in forelimb clonus score is indicative of protection from seizure and an anticonvulsive effect.
When conducted at a 44 mA stimulus intensity in mice, the 6 Hz test can differentiate compounds with potential for the treatment of focal-onset seizures that are often resistant to current anti-epileptic drugs.
Male RjOrl: Swiss mice (Janvier Labs, 53940 Le Genest-Saint-Isle, France), 5 weeks old, weighing 27-38 g at the beginning of the experiment. Animals were acclimatized to the Test Facility for at least 5 days after delivery and randomly housed in groups of 5 to 8 in macrolon cages on wood litter with free access to food and water.
(§1) The animal house was maintained under artificial lighting (12 hours) between 7:00 and 19:00 in a controlled ambient temperature of 22±2 °C and relative humidity between 30-70%.
Before transcorneal stimulation, a drop of tetracaine solution (1%) was applied on each eye of the mouse for local anesthesia. Between 1-10 minutes later and at the designated pre-treatment (see below), the mice were administered a rectangular current (44 mA, rectangular pulse: 0.2 ms pulse width, 3 s duration, (6 Hz) via corneal electrodes connected to a constant current shock generator (Ugo Basile: type 7801).
The results for the number of seizures as reflected by forelimb clonus were recorded immediately after current administration. Forelimb clonus was scored as absent (0=no forelimb clonus), mild (1=clonus with one forelimb) and strong (2=clonus with both forelimbs). The experimenters were blinded to the treatment. […]
The administration volume was 10 mL/kg.
Due to the number of animals tested, the experiment was divided in 2 sub-experiments on 2 consecutive days with equivalent numbers of mice per group and per sub-experiment.
Data were discrete values so considered to be non-normally distributed based on validation data, therefore non-parametric tests were utilized. Quantitative data (scores) with the test substance were analyzed by comparing test compound-treated groups with the 1:2:17 vehicle control using Kruskal-Wallis test with Dunn's multiple comparisons test when the Kruskal-Wallis test was significant. Quantitative data with the reference substance were analyzed using Mann-Whitney U test as compared to saline vehicle.

DBA/2 mice [2] = test: mouse audiogenic seizure test; type: in vivo; settings: 180 mg/kg i.p., 30 min
Source text: The Audiogenic Seizure Test, which detects anticonvulsant activity, follows that described by Durmüller et al., 1993. Mice of the DBA/2 strain undergo an age-dependent sequence of convulsions (wild-running, clonic convulsion, tonic convulsion and respiratory arrest) within 60 seconds of exposure to a loud sound of 110-120 dB. The type of convulsions are consistent with aspects of generalised seizure in humans.
Male DBA/2 mice (3-4 weeks old) were supplied by Janvier Labs (53940 Le Genest-Saint-Isle, France); weight range 6-13 g at the beginning of the experiment. Animals were acclimatized to the Test Facility for 1 day after delivery and randomly housed in groups of 5 in macrolon cages on wood litter with free access to food and water.
as §1
Mice were individually transferred (at 3-5 minutes intervals) from the preparation room into an adjacent experimental room and body temperature was measured using a rectal thermometer (Digital Laboratory Thermometer: Model BAT-12). Immediately after, they were placed in a Plexiglas jar (Diameter=40 cm; Height=35 cm) mounted with an electric bell (110-120 dB, supplier Leroy Merlin, France). Upon activating the bell, the occurrences and latencies to wild running fits, clonic and tonic seizures were measured. Deaths were also recorded. The bell was activated until a tonic seizure occurred, or for a maximum of 60 seconds.
The experiment included groups of 10 mice per group. Experimenters were only partially blinded to treatment group as pre-treatment times were different.
The test substance was evaluated at various doses, administered i.p. (10 ml/kg) 15 or 30 minutes before the test, and compared with a vehicle control group.
Due to the number of animals tested, the experiment was divided in 2 sub-experiments on 2 separate days (7 days apart) with 5 mice per group in each sub-experiment.
Data were tested for normality using d'Agostino-Pearson Test and found to not follow a normal distribution. Statistical outliers were not identified or removed because no behavioural outliers were identified. Quantitative data (latencies) with the test substance were analyzed by comparing treated groups with vehicle control using Kruskal-Wallis test followed by Dunn's multiple comparisons test. Quantitative data with the reference substance were analyzed using Mann-Whitney U test. Quantal data (frequencies) were analyzed by comparing treated groups with vehicle control using Fisher's Exact Probability test.

C57BL/6J mice = test: mouse maximal electroshock seizure threshold model (MEST); type: in vivo; settings: 150 mg/kg i.p., 30 min
Description: Vehicle=1:2:17 ethanol:Solutol® (Kolliphor® HS 15):saline: 1 mL of ethanol and 2 mL of solutol were warmed to 60 °C and 17 mL of 0.9% saline was added slowly. […]
Vehicle=0.5% HPMC and 0.1% Tween 80:0.5% HPMC and 0.1% Tween 80 in water.

RjOrl: Swiss mice [3] = test: mouse 6 Hz (44 mA) model of partial seizures; type: in vivo; settings: 200 mg/kg i.p., 30 min; vs vehicle (HPMC)
DBA/2 mice [4] = settings: De Sarro et al., 2017; cited from earlier work

## CCCC(CCC)C(=O)[O-].[Na+] [Sodium Valproate, sodium valproate, reference compound]
RjOrl: Swiss mice [1]; vs vehicle 1 (saline)
  Change from vehicle 1 (forelimb clonus): −82%***
RjOrl: Swiss mice [1]; vs vehicle 2 (1:2:17 ethanol:Kolliphor HS15:saline)
  Change from vehicle 2 (forelimb clonus): −89%***
DBA/2 mice [2]
  Clonic convulsion - presence, %: 30%
  Tonic convulsion - presence, %: 0%
  Wild running - presence, %: 30%
  latencies to clonic convulsions (significance in words): significantly increased
  latencies to tonic convulsions (significance in words): significantly increased
  latencies to wild running (significance in words): significantly increased
  number of mice displaying clonic convulsions (significance in words): significantly decreased
  number of mice displaying tonic convulsions (significance in words): significantly decreased
  number of mice displaying wild running (significance in words): significantly decreased
DBA/2 mice [2]; number of mice, n = 10
  Clonic convulsion - presence, Total: 1
  Tonic convulsion - presence, Total: 0
  Wild running - presence, Total: 1
C57BL/6J mice; 1:1:18 ethanol:Kolliphor EL:saline
  CC50 +/− SEM: 139.2 ± 2.1 mA
C57BL/6J mice; 1:2:17 ethanol:Solutol:saline
  CC50 +/− SEM: 104.2 ± 1.0 mA
C57BL/6J mice; study with HPMC vehicle
  CC50 +/− SEM: >300.0 mA and 215.8 ± 30.1 mA
C57BL/6J mice; vs 1:1:18 ethanol:Kolliphor EL:saline vehicle
  Change from vehicle (CC50): 457%^###
C57BL/6J mice; vs 1:2:17 ethanol:Solutol:saline vehicle
  Change from vehicle (CC50): 346%^###
C57BL/6J mice; vs HPMC vehicle
  Change from vehicle (CC50): >1043%*** and 714%***
RjOrl: Swiss mice [3]
  Change from vehicle (forelimb clonus): −60%***
DBA/2 mice [4]
  protection from clonic convulsions, tonic convulsions and respiratory arrest: protect DBA/2 mice from clonic convulsions, tonic convulsions and respiratory arrest
